Where only a bound is given, the exact number is not on record here.

Data on 48 compounds can be found in the supplement of paper PMC6580486.

Experiment [1] relates to PCB490-5 (human epithelioid sarcoma primary culture). How it is done: (§1)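 Roche open-access kinase inhibitor screen (223 compounds) on human epithelioid sarcoma primary cultures from three spatially distinct regions of tumor PCB490. 384-well plates, 72 h, CellTiter-Glo viability; IC50 by Hill curve fit. 100000 nM = no IC50 reached. Compound ids carry a plate-well prefix, which is stripped.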
Experiment [2] deals with PCB490-3 (human epithelioid sarcoma primary culture). How it is done: as §1
Experiment [3] relates to PCB490-4 (human epithelioid sarcoma primary culture). As to the method:
as §1

For the compound `Nc1c(C(=O)c2cccc(-c3ccncc3)c2)cnn1-c1ccc(F)cc1`, the IC50 cell viability in experiment [1], in experiment [2] and in experiment [3] was above 100 µM each time.

On to `Cn1c(=O)c(Cc2ccccc2F)cc2cnc(NC3CCOCC3)nc21`, for which the IC50 cell viability in experiment [1], in experiment [2] and in experiment [3] was above 100 µM in each case.

Consider `COc1cccc(C2=C(c3cn(C)c4ccccc34)C(=O)NC2=O)c1`, for which the IC50 cell viability in experiment [1], in experiment [2] and in experiment [3] was above 100 µM in each case.

For the compound `CS(=O)(=O)N1CCC(Nc2ncc(C(=O)c3c(F)cccc3F)c(N)n2)CC1`, the IC50 cell viability in experiment [1], in experiment [2] and in experiment [3] was above 100 µM throughout.

For the compound `Cn1cc(C2=C(c3cccc4ccccc34)C(=O)NC2=O)c2ccccc21`, the IC50 cell viability in experiment [1], in experiment [2] and in experiment [3] was above 100 µM in each case.

Regarding `CCn1c(=O)c(Oc2ccc(F)cc2F)cc2cnc(NC3CCOCC3)nc21`, the IC50 cell viability in experiment [1], in experiment [2] and in experiment [3] was above 100 µM throughout.

With `CSc1c(C2=C(c3cn(C)c4ccccc34)C(=O)NC2=O)c2ccccc2n1C`, the IC50 cell viability in experiment [1], in experiment [2] and in experiment [3] was above 100 µM in each case.

`Cn1cc(C2=C(c3cn(-c4ccccc4)c4ccccc34)C(=O)NC2=O)c2ccccc21`: the IC50 cell viability in experiment [1], in experiment [2] and in experiment [3] was above 100 µM throughout.

On to `CC(=O)Nc1ccc2c(c1)C(c1ccccc1Cl)=Nc1c(n[nH]c1C)N2`, for which the IC50 cell viability in experiment [1] amounted to 1.55 µM; in experiment [2] it was 4.63 µM; in experiment [3] it was 1.72 µM.

In the case of `Cn1c(-c2ccncc2)c(-c2ccc(F)cc2)c2ncccc21`, the IC50 cell viability in experiment [1], in experiment [2] and in experiment [3] was above 100 µM each time.

Turning to `COc1ccc(O)c(C(=O)c2ccc(C(=O)N[C@@H]3CCCNC[C@H]3NC(=O)c3ccncc3)cc2)c1F`, the IC50 cell viability in experiment [1], in experiment [2] and in experiment [3] was above 100 µM in each case.

With `O=C1OC(=O)C(c2c[nH]c3ccccc23)=C1c1c[nH]c2ccccc12`, the IC50 cell viability in experiment [1], in experiment [2] and in experiment [3] was above 100 µM each time.

On to `Cc1cc(C)c2c(n1)sc1c(N)ncnc12`, for which the IC50 cell viability in experiment [1], in experiment [2] and in experiment [3] was above 100 µM throughout.

Take `O=C1NC(=NCc2cccs2)SC1Cc1ccc2ncccc2c1` (centres undefined): the IC50 cell viability in experiment [1], in experiment [2] and in experiment [3] was above 100 µM throughout.

Take `Cn1c(=O)c(Oc2ccc(F)cc2)cc2cnc(NC3CCOCC3)nc21`: the IC50 cell viability in experiment [1], in experiment [2] and in experiment [3] was above 100 µM throughout.

Regarding `COc1cccc(C2=C(c3cn(C)c4cccc(OC)c34)C(=O)NC2=O)c1`, the IC50 cell viability in experiment [1], in experiment [2] and in experiment [3] was above 100 µM throughout.

On to `O=C1NC(=NCCc2ccccn2)S/C1=C\c1ccc2ncccc2c1`, for which the IC50 cell viability in experiment [1], in experiment [2] and in experiment [3] was above 100 µM in each case.

Take `Cn1c(=O)c(Oc2ccc(F)cc2F)cc2cnc(N[C@H]3CCOC3)nc21`: the IC50 cell viability in experiment [1], in experiment [2] and in experiment [3] was above 100 µM each time.

With `Nc1c(C(=O)c2cccc(OCCN3CCOCC3)c2)cnn1-c1ccc(F)cc1`, the IC50 cell viability in experiment [1], in experiment [2] and in experiment [3] was above 100 µM each time.

Turning to `CN(C)CC#Cc1cccc(C(=O)c2cnn(-c3ccc(F)cc3)c2N)c1`, the IC50 cell viability in experiment [1], in experiment [2] and in experiment [3] was above 100 µM each time.

Turning to `CN1CCN(CCc2cccc(C(=O)c3cnn(-c4ccc(F)cc4)c3N)c2)CC1`, the IC50 cell viability in experiment [1], in experiment [2] and in experiment [3] was above 100 µM in each case.

Turning to `O=C1NC(=O)/C(=C/c2ccc3ncccc3c2)S1`, the IC50 cell viability in experiment [1], in experiment [2] and in experiment [3] was above 100 µM each time.

Regarding `COc1cc(F)c(F)c(F)c1C(=O)c1cnc(NC2CCN(S(C)(=O)=O)CC2)nc1N`, the IC50 cell viability is 7.14 µM in experiment [1], above 100 µM in experiment [2] and 4.47 µM in experiment [3].

For `CC(=O)N[C@@H](Cc1ccc(OP(=O)(O)O)cc1)C(=O)N[C@H]1CCC(=O)N2CCC[C@@H](C(=O)NCc3ccc(O)cc3)N2C1=O`, the IC50 cell viability in experiment [1], in experiment [2] and in experiment [3] was above 100 µM in each case.

With `C[C@H](CS(C)(=O)=O)Nc1ncc2cc(Oc3ccc(F)cc3F)c(=O)n(C)c2n1`, the IC50 cell viability in experiment [1], in experiment [2] and in experiment [3] was above 100 µM in each case.

For `COc1ccc2c(C3=C(c4cn(C)c5ccccc45)C(=O)NC3=O)cn(C)c2c1`, the IC50 cell viability in experiment [1], in experiment [2] and in experiment [3] was above 100 µM in each case.

As for `Cn1cc(C2=C(c3c4n(c5ccccc35)CCCC4)C(=O)NC2=O)c2ccccc21`, the IC50 cell viability in experiment [1], in experiment [2] and in experiment [3] was above 100 µM each time.

Regarding `Cc1[nH]n(-c2ccccc2)c(=O)c1C(=O)c1ccccc1`, the IC50 cell viability in experiment [1], in experiment [2] and in experiment [3] was above 100 µM each time.

Regarding `O=C1NC(=NCCc2cccs2)S/C1=C\c1ccc2ncccc2c1`, the IC50 cell viability in experiment [1], in experiment [2] and in experiment [3] was above 100 µM each time.

Turning to `Cn1cc(C2=C(c3cn(C)c4cc(C(N)=O)ccc34)C(=O)NC2=O)c2ccccc21`, the IC50 cell viability in experiment [1], in experiment [2] and in experiment [3] was above 100 µM each time.

As for `Cn1c(=O)c(Oc2ccc(F)cc2F)cc2cnc(NCCS(C)(=O)=O)nc21`, the IC50 cell viability in experiment [1], in experiment [2] and in experiment [3] was above 100 µM in each case.

`O=C1NC(=Nc2ccccc2)S/C1=C\c1ccc2ncccc2c1`: the IC50 cell viability in experiment [1], in experiment [2] and in experiment [3] was above 100 µM in each case.

Take `CC(=O)N[C@@H](Cc1ccc(OP(=O)(O)O)cc1)C(=O)N[C@H]1CCC(=O)N2CCC[C@@H](C(=O)NCc3cccc4ccccc34)N2C1=O`: the IC50 cell viability in experiment [1], in experiment [2] and in experiment [3] was above 100 µM throughout.

For the compound `Nc1c(C(=O)c2cccc(C#CCN3CCCCC3)c2)cnn1-c1ccc(F)cc1`, the IC50 cell viability in experiment [1], in experiment [2] and in experiment [3] was above 100 µM throughout.

As for `COc1ccc(C2=C(c3cn(C)c4ccccc34)C(=O)NC2=O)cc1`, the IC50 cell viability in experiment [1], in experiment [2] and in experiment [3] was above 100 µM in each case.

Regarding `Cn1c(=O)c(Oc2ccc(F)cc2F)cc2cnc(NC(CO)CO)nc21`, the results for the IC50 cell viability in experiment [1], in experiment [2] and in experiment [3] were 8.58 µM, above 100 µM and 15 µM, respectively.

On to `CN1CCN(CC#Cc2cccc(C(=O)c3cnn(-c4ccc(F)cc4)c3N)c2)CC1`, for which the IC50 cell viability in experiment [1], in experiment [2] and in experiment [3] was above 100 µM throughout.

Take `CS(=O)(=O)CCn1c(=O)c(Oc2ccc(F)cc2F)cc2cnc(NC3CCOCC3)nc21`: the IC50 cell viability in experiment [1], in experiment [2] and in experiment [3] was above 100 µM throughout.

On to `O=c1c(Oc2ccc(F)cc2F)cc2cnc(NC3CCOCC3)nc2n1CCCO`, for which the IC50 cell viability in experiment [1], in experiment [2] and in experiment [3] was above 100 µM each time.

As for `COc1cc[nH]c1/C=C1\C(=O)Nc2ccc(F)c(C#CC3(O)CCNCC3)c21`, the IC50 cell viability in experiment [1] was 0.67 µM; in experiment [2] it was above 100 µM; in experiment [3], 1 µM.

Consider `Cn1cc(C2=C(c3c([S+](C)[O-])n(C)c4ccccc34)C(=O)NC2=O)c2ccccc21` (centres undefined), for which the IC50 cell viability in experiment [1], in experiment [2] and in experiment [3] was above 100 µM each time.

Consider `O=C1NC(=N[C@@H](CO)Cc2ccccc2)S/C1=C\c1ccc2ncccc2c1`, for which the IC50 cell viability in experiment [1], in experiment [2] and in experiment [3] was above 100 µM throughout.

With `Cn1cc(C2=C(c3ccc(N)cc3)C(=O)NC2=O)c2ccccc21`, the IC50 cell viability in experiment [1], in experiment [2] and in experiment [3] was above 100 µM each time.

As to `Nc1c(C(=O)c2ccc(-c3cccnc3)cc2)cnn1-c1ccc(F)cc1`, the IC50 cell viability in experiment [1], in experiment [2] and in experiment [3] was above 100 µM in each case.

In the case of `CC(C)c1[nH]nc2c1N=C(c1ccccc1Cl)c1cc([N+](=O)[O-])ccc1N2`, the IC50 cell viability in experiment [1], in experiment [2] and in experiment [3] was above 100 µM in each case.

Take `Cn1cc(C2=C(Nc3ccccc3)C(=O)NC2=O)c2ccccc21`: the IC50 cell viability in experiment [1], in experiment [2] and in experiment [3] was above 100 µM throughout.

With `COC[C@H](N=C1NC(=O)/C(=C/c2ccc3ncccc3c2)S1)c1ccccc1`, the IC50 cell viability in experiment [1], in experiment [2] and in experiment [3] was above 100 µM each time.

Take `Cc1nc2sc3c(N)ncnc3c2c(C)c1C`: the IC50 cell viability in experiment [1], in experiment [2] and in experiment [3] was above 100 µM in each case.
